Measured values taken from the supplement of paper PMC10307832.

Tests used:
Test in all cases: relative viability (nuclei count vs DMSO), 5 days (fraction); higher = more cells survive
FH535 = compound: CC1=C(C=CC(=C1)[N+](=O)[O-])NS(=O)(=O)C2=C(C=CC(=C2)Cl)Cl [FH535]
How it was run: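 Viability was defined as treated-well nuclei divided by vehicle-well nuclei, with the median taken over replicate plates. Cells from lung cancer lines sat overnight at 37 °C in 1536-well plates, received five √10-spaced library-drug doses by pinning on vehicle-anchored plates, and grew 5 days without medium change before one-step fixation, permeabilisation and Hoechst staining, 4× imaging and MetaXpress nuclear counts. Only plates with control CV under 25% and at least one doubling were kept.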

FH535 + Trametinib = compound: CC1=C(C=CC(=C1)[N+](=O)[O-])NS(=O)(=O)C2=C(C=CC(=C2)Cl)Cl [FH535] + CC(=O)Nc1cccc(-n2c(=O)n(C3CC3)c(=O)c3c(Nc4ccc(I)cc4F)n(C)c(=O)c(C)c32)c1 [Trametinib] (partner 0.02 µM)
How it was run: (§1)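 Lung cancer cell lines were pin-tool dosed in 1536-well plates on the day after seeding, with either a lone drug or a fixed anchor-drug dose plus five library-drug doses (not always all listed) in √10 steps. Nuclei were counted on 4× images after 5 days. Relative viability is the ratio of treated-well to vehicle-well nuclei counts, with each value a median of duplicate plates.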

FH535 + Palbociclib = compound: CC1=C(C=CC(=C1)[N+](=O)[O-])NS(=O)(=O)C2=C(C=CC(=C2)Cl)Cl [FH535] + CC(=O)c1c(C)c2cnc(Nc3ccc(N4CCNCC4)cn3)nc2n(C2CCCC2)c1=O [Palbociclib] (partner 0.5 µM)
How it was run: as §1

FH535 + Luminespib = compound: CC1=C(C=CC(=C1)[N+](=O)[O-])NS(=O)(=O)C2=C(C=CC(=C2)Cl)Cl [FH535] + CCNC(=O)c1noc(-c2cc(C(C)C)c(O)cc2O)c1-c1ccc(CN2CCOCC2)cc1 [Luminespib] (partner 0.01 µM)
How it was run: as §1

FH535 + Foretinib = compound: CC1=C(C=CC(=C1)[N+](=O)[O-])NS(=O)(=O)C2=C(C=CC(=C2)Cl)Cl [FH535] + COc1cc2c(Oc3ccc(NC(=O)C4(C(=O)Nc5ccc(F)cc5)CC4)cc3F)ccnc2cc1OCCCN1CCOCC1 [Foretinib] (partner 0.25 µM)
How it was run: as §1

FH535 + OSI-027 = compound: CC1=C(C=CC(=C1)[N+](=O)[O-])NS(=O)(=O)C2=C(C=CC(=C2)Cl)Cl [FH535] + COc1cccc2cc(-c3nc([C@H]4CC[C@H](C(=O)O)CC4)n4ncnc(N)c34)[nH]c12 [OSI-027] (partner 0.5 µM)
How it was run: as §1

FH535 + Tozasertib = compound: CC1=C(C=CC(=C1)[N+](=O)[O-])NS(=O)(=O)C2=C(C=CC(=C2)Cl)Cl [FH535] + Cc1cc(Nc2cc(N3CCN(C)CC3)nc(Sc3ccc(NC(=O)C4CC4)cc3)n2)n[nH]1 [Tozasertib] (partner 0.1 µM)
How it was run: as §1

FH535 + Dasatinib = compound: CC1=C(C=CC(=C1)[N+](=O)[O-])NS(=O)(=O)C2=C(C=CC(=C2)Cl)Cl [FH535] + Cc1nc(Nc2ncc(C(=O)Nc3c(C)cccc3Cl)s2)cc(N2CCN(CCO)CC2)n1 [Dasatinib] (partner 0.075 µM)
How it was run: as §1

FH535 + Phenformin = compound: CC1=C(C=CC(=C1)[N+](=O)[O-])NS(=O)(=O)C2=C(C=CC(=C2)Cl)Cl [FH535] + N=C(N)NC(=N)NCCc1ccccc1 [Phenformin] (partner 250 µM)
How it was run: as §1

FH535 + AZD7762 = compound: CC1=C(C=CC(=C1)[N+](=O)[O-])NS(=O)(=O)C2=C(C=CC(=C2)Cl)Cl [FH535] + NC(=O)Nc1cc(-c2cccc(F)c2)sc1C(=O)N[C@H]1CCCNC1 [AZD7762] (partner 0.2 µM)
How it was run: as §1

FH535 + Pemetrexed = compound: CC1=C(C=CC(=C1)[N+](=O)[O-])NS(=O)(=O)C2=C(C=CC(=C2)Cl)Cl [FH535] + Nc1nc2[nH]cc(CCc3ccc(C(=O)N[C@@H](CCC(=O)O)C(=O)O)cc3)c2c(=O)[nH]1 [Pemetrexed] (partner 0.2 µM)
How it was run: as §1

FH535 + Decitabine = compound: CC1=C(C=CC(=C1)[N+](=O)[O-])NS(=O)(=O)C2=C(C=CC(=C2)Cl)Cl [FH535] + Nc1ncn([C@H]2C[C@H](O)[C@@H](CO)O2)c(=O)n1 [Decitabine] (partner 2 µM)
How it was run: as §1

FH535 + Vorinostat = compound: CC1=C(C=CC(=C1)[N+](=O)[O-])NS(=O)(=O)C2=C(C=CC(=C2)Cl)Cl [FH535] + O=C(CCCCCCC(=O)Nc1ccccc1)NO [Vorinostat] (partner 1 µM)
How it was run: as §1

FH535 + Olaparib = compound: CC1=C(C=CC(=C1)[N+](=O)[O-])NS(=O)(=O)C2=C(C=CC(=C2)Cl)Cl [FH535] + O=C(c1cc(Cc2n[nH]c(=O)c3ccccc23)ccc1F)N1CCN(C(=O)C2CC2)CC1 [Olaparib] (partner 8 µM)
How it was run: as §1

Cell Line: NCI-H2342
- relative viability (FH535; 0.04 µM): 0.96
- relative viability (FH535; 0.1265 µM): 0.964
- relative viability (FH535; 0.4 µM): 1.01
- relative viability (FH535; 1.265 µM): 0.76
- relative viability (FH535 + Trametinib; first compound 0.04 µM): 0.794
- relative viability (FH535 + Trametinib; first compound 0.1265 µM): 0.823
- relative viability (FH535 + Trametinib; first compound 0.4 µM): 0.9
- relative viability (FH535 + Trametinib; first compound 1.265 µM): 0.842
- relative viability (FH535 + Palbociclib; first compound 0.04 µM): 0.524
- relative viability (FH535 + Palbociclib; first compound 0.1265 µM): 0.533
- relative viability (FH535 + Palbociclib; first compound 0.4 µM): 0.567
- relative viability (FH535 + Palbociclib; first compound 1.265 µM): 0.581
- relative viability (FH535 + Luminespib; first compound 0.04 µM): 0.738
- relative viability (FH535 + Luminespib; first compound 0.1265 µM): 0.713
- relative viability (FH535 + Luminespib; first compound 0.4 µM): 0.705
- relative viability (FH535 + Luminespib; first compound 1.265 µM): 0.6
- relative viability (FH535 + Foretinib; first compound 0.04 µM): 1.19
- relative viability (FH535 + Foretinib; first compound 0.1265 µM): 1.09
- relative viability (FH535 + Foretinib; first compound 0.4 µM): 1.04
- relative viability (FH535 + Foretinib; first compound 1.265 µM): 0.792
- relative viability (FH535 + OSI-027; first compound 0.04 µM): 0.516
- relative viability (FH535 + OSI-027; first compound 0.1265 µM): 0.593
- relative viability (FH535 + OSI-027; first compound 0.4 µM): 0.641
- relative viability (FH535 + OSI-027; first compound 1.265 µM): 0.567
- relative viability (FH535 + Tozasertib; first compound 0.04 µM): 0.541
- relative viability (FH535 + Tozasertib; first compound 0.1265 µM): 0.564
- relative viability (FH535 + Tozasertib; first compound 0.4 µM): 0.445
- relative viability (FH535 + Tozasertib; first compound 1.265 µM): 0.454
- relative viability (FH535 + Dasatinib; first compound 0.04 µM): 0.305
- relative viability (FH535 + Dasatinib; first compound 0.1265 µM): 0.339
- relative viability (FH535 + Dasatinib; first compound 0.4 µM): 0.281
- relative viability (FH535 + Dasatinib; first compound 1.265 µM): 0.297
- relative viability (FH535 + Phenformin; first compound 0.04 µM): 0.559
- relative viability (FH535 + Phenformin; first compound 0.1265 µM): 0.602
- relative viability (FH535 + Phenformin; first compound 0.4 µM): 0.611
- relative viability (FH535 + Phenformin; first compound 1.265 µM): 0.437
- relative viability (FH535 + AZD7762; first compound 0.04 µM): 0.491
- relative viability (FH535 + AZD7762; first compound 0.1265 µM): 0.482
- relative viability (FH535 + AZD7762; first compound 0.4 µM): 0.482
- relative viability (FH535 + AZD7762; first compound 1.265 µM): 0.354
- relative viability (FH535 + Pemetrexed; first compound 0.04 µM): 0.772
- relative viability (FH535 + Pemetrexed; first compound 0.1265 µM): 0.748
- relative viability (FH535 + Pemetrexed; first compound 0.4 µM): 0.812
- relative viability (FH535 + Pemetrexed; first compound 1.265 µM): 0.634
- relative viability (FH535 + Decitabine; first compound 0.04 µM): 0.706
- relative viability (FH535 + Decitabine; first compound 0.1265 µM): 0.632
- relative viability (FH535 + Decitabine; first compound 0.4 µM): 0.736
- relative viability (FH535 + Decitabine; first compound 1.265 µM): 0.568
- relative viability (FH535 + Vorinostat; first compound 0.04 µM): 0.674
- relative viability (FH535 + Vorinostat; first compound 0.1265 µM): 0.725
- relative viability (FH535 + Vorinostat; first compound 0.4 µM): 0.87
- relative viability (FH535 + Vorinostat; first compound 1.265 µM): 0.721
- relative viability (FH535 + Olaparib; first compound 0.04 µM): 0.471
- relative viability (FH535 + Olaparib; first compound 0.1265 µM): 0.487
- relative viability (FH535 + Olaparib; first compound 0.4 µM): 0.434
- relative viability (FH535 + Olaparib; first compound 1.265 µM): 0.363
